# Experimental data from ChEMBL document CHEMBL1201862, “PubChem BioAssay data set” (2004).
#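 Five concentrations, 48 hours, 96-well plates. GI50: concentration for 50% inhibition of growth.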 Activity calls are given as the source filed them. No stated cut-off is given here; in the data, active = GI50 up to about 1.1 µM and inactive = higher.
# Columns and labels:
# Test in all cases: growth of human tumour cells (NCI), 48 h
# 786-0 = system: 786-0
# A498 = system: A498
# A549 = system: A549
# ACHN = system: ACHN
# CAKI-1 = system: CAKI-1
# CCRF-CEM = system: CCRF-CEM
# COLO 205 = system: COLO 205
# DU-145 = system: DU-145
# EKVX = system: EKVX
# HCC 2998 = system: HCC 2998
# HCT-116 = system: HCT-116
# HCT-15 = system: HCT-15
# HL-60 = system: HL-60
# HOP-62 = system: HOP-62
# HOP-92 = system: HOP-92
# HT-29 = system: HT-29
# Hs-578T = system: Hs-578T
# IGROV-1 = system: IGROV-1
# K562 = system: K562
# KM12 = system: KM12
# LOX IMVI = system: LOX IMVI
# M14 = system: M14
# MCF7 = system: MCF7
# MDA-MB-231 = system: MDA-MB-231
# MDA-MB-435 = system: MDA-MB-435
# MDA-N = system: MDA-N
# MOLT-4 = system: MOLT-4
# Malme-3M = system: Malme-3M
# NCI-H226 = system: NCI-H226
# NCI-H23 = system: NCI-H23
# NCI-H460 = system: NCI-H460
# NCI-H522 = system: NCI-H522
# NCI/ADR-RES = system: NCI/ADR-RES
# OVCAR-3 = system: OVCAR-3
# OVCAR-4 = system: OVCAR-4
# OVCAR-5 = system: OVCAR-5
# OVCAR-8 = system: OVCAR-8
# PC-3 = system: PC-3
# RXF 393 = system: RXF 393
# SF-268 = system: SF-268
# SF-295 = system: SF-295
# SF-539 = system: SF-539
# SK-MEL-28 = system: SK-MEL-28
# SK-OV-3 = system: SK-OV-3
# SN12C = system: SN12C
# SNB-19 = system: SNB-19
# SNB-75 = system: SNB-75
# SR = system: SR
# SW-620 = system: SW-620
# T47D = system: T47D
# TK-10 = system: TK-10
# U-251 = system: U-251
# UACC-257 = system: UACC-257
# UACC-62 = system: UACC-62
# BT-549 = system: BT-549
# RPMI-8226 = system: RPMI-8226
# SK-MEL-5 = system: SK-MEL-5
# UO-31 = system: UO-31
# SK-MEL-2 = system: SK-MEL-2
structure (smiles),measurement,setting,value
CCOC(=O)c1c(SC(=O)c2ccc(OC)cc2)n(-c2ccccc2)c(=S)n(-c2ccccc2)c1=O,GI50,786-0,37.8 µM (inactive)
same,GI50,A498,27.3 µM (inactive)
same,GI50,A549,> 100 µM (inactive)
same,GI50,ACHN,> 100 µM (inactive)
same,GI50,CAKI-1,> 100 µM (inactive)
same,GI50,CCRF-CEM,35.6 µM (inactive)
same,GI50,COLO 205,89.1 µM (inactive)
same,GI50,DU-145,> 100 µM (inactive)
same,GI50,EKVX,> 100 µM (inactive)
same,GI50,HCC 2998,> 100 µM (inactive)
same,GI50,HCT-116,23.3 µM (inactive)
same,GI50,HCT-15,23.4 µM
same,GI50,HL-60,40.3 µM (inactive)
same,GI50,HOP-62,> 100 µM (inactive)
same,GI50,HOP-92,> 100 µM (inactive)
same,GI50,HT-29,46.1 µM (inactive)
same,GI50,Hs-578T,45.4 µM (inactive)
same,GI50,IGROV-1,21.1 µM (inactive)
same,GI50,K562,42.5 µM (inactive)
same,GI50,KM12,> 100 µM (inactive)
same,GI50,LOX IMVI,36.3 µM (inactive)
same,GI50,M14,29.7 µM (inactive)
same,GI50,MCF7,30.9 µM (inactive)
same,GI50,MDA-MB-231,24 µM (inactive)
same,GI50,MDA-MB-435,54.6 µM (inactive)
same,GI50,MDA-N,> 100 µM (inactive)
same,GI50,MOLT-4,22.5 µM (inactive)
same,GI50,Malme-3M,> 100 µM (inactive)
same,GI50,NCI-H226,84.1 µM (inactive)
same,GI50,NCI-H23,61.9 µM (inactive)
same,GI50,NCI-H460,84.7 µM (inactive)
same,GI50,NCI-H522,49.4 µM (inactive)
same,GI50,NCI/ADR-RES,> 100 µM (inactive)
same,GI50,OVCAR-3,50 µM (inactive)
same,GI50,OVCAR-4,> 100 µM (inactive)
same,GI50,OVCAR-5,> 100 µM (inactive)
same,GI50,OVCAR-8,21.8 µM (inactive)
same,GI50,PC-3,59.3 µM (inactive)
same,GI50,RXF 393,49.3 µM (inactive)
same,GI50,SF-268,18.6 µM (inactive)
same,GI50,SF-295,> 100 µM (inactive)
same,GI50,SF-539,21.2 µM (inactive)
same,GI50,SK-MEL-28,> 100 µM (inactive)
same,GI50,SK-OV-3,> 100 µM (inactive)
same,GI50,SN12C,76.9 µM (inactive)
same,GI50,SNB-19,> 100 µM (inactive)
same,GI50,SNB-75,> 100 µM (inactive)
same,GI50,SR,29.9 µM (inactive)
same,GI50,SW-620,26.7 µM (inactive)
same,GI50,T47D,> 100 µM (inactive)
same,GI50,TK-10,> 100 µM (inactive)
same,GI50,U-251,33.6 µM (inactive)
same,GI50,UACC-257,> 100 µM (inactive)
same,GI50,UACC-62,> 100 µM (inactive)
C/C(=C\COP(=O)(O)OP(=O)(O)O)CCCCCCOCc1ccccc1,GI50,786-0,> 100 µM (inactive)
same,GI50,A498,> 100 µM (inactive)
same,GI50,A549,> 100 µM (inactive)
same,GI50,ACHN,> 100 µM (inactive)
same,GI50,BT-549,> 100 µM (inactive)
same,GI50,CAKI-1,> 100 µM (inactive)
same,GI50,CCRF-CEM,> 100 µM (inactive)
same,GI50,COLO 205,> 100 µM (inactive)
same,GI50,DU-145,> 100 µM (inactive)
same,GI50,EKVX,> 100 µM (inactive)
same,GI50,HCC 2998,> 100 µM (inactive)
same,GI50,HCT-116,> 100 µM (inactive)
same,GI50,HCT-15,> 100 µM
same,GI50,HL-60,> 100 µM (inactive)
same,GI50,HOP-62,> 100 µM (inactive)
same,GI50,HOP-92,> 100 µM (inactive)
same,GI50,HT-29,> 100 µM (inactive)
same,GI50,Hs-578T,> 100 µM (inactive)
same,GI50,IGROV-1,> 100 µM (inactive)
same,GI50,K562,> 100 µM (inactive)
same,GI50,KM12,> 100 µM (inactive)
same,GI50,LOX IMVI,> 100 µM (inactive)
same,GI50,M14,> 100 µM (inactive)
same,GI50,MCF7,> 100 µM (inactive)
same,GI50,MDA-MB-231,> 100 µM (inactive)
same,GI50,MDA-MB-435,> 100 µM (inactive)
same,GI50,MOLT-4,> 100 µM (inactive)
same,GI50,Malme-3M,> 100 µM (inactive)
same,GI50,NCI-H226,> 100 µM (inactive)
same,GI50,NCI-H23,> 100 µM (inactive)
same,GI50,NCI-H460,> 100 µM (inactive)
same,GI50,NCI-H522,> 100 µM (inactive)
same,GI50,NCI/ADR-RES,> 100 µM (inactive)
same,GI50,OVCAR-3,> 100 µM (inactive)
same,GI50,OVCAR-4,> 100 µM (inactive)
same,GI50,OVCAR-5,> 100 µM (inactive)
same,GI50,OVCAR-8,> 100 µM (inactive)
same,GI50,RPMI-8226,> 100 µM (inactive)
same,GI50,RXF 393,> 100 µM (inactive)
same,GI50,SF-268,> 100 µM (inactive)
same,GI50,SF-295,> 100 µM (inactive)
same,GI50,SF-539,> 100 µM (inactive)
same,GI50,SK-MEL-28,> 100 µM (inactive)
same,GI50,SK-MEL-5,> 100 µM (inactive)
same,GI50,SK-OV-3,> 100 µM (inactive)
same,GI50,SN12C,> 100 µM (inactive)
same,GI50,SNB-19,> 100 µM (inactive)
same,GI50,SNB-75,> 100 µM (inactive)
same,GI50,SR,> 100 µM (inactive)
same,GI50,SW-620,> 100 µM (inactive)
same,GI50,T47D,> 100 µM (inactive)
same,GI50,TK-10,> 100 µM (inactive)
same,GI50,U-251,> 100 µM (inactive)
same,GI50,UACC-257,> 100 µM (inactive)
same,GI50,UACC-62,> 100 µM (inactive)
same,GI50,UO-31,> 100 µM (inactive)
COc1ccc(Cc2c(-c3ccc(C)cc3)n[nH]c(=O)c2C2C(=O)N(c3ccccc3)N=C2c2ccccc2)cc1 (stereo not drawn),GI50,786-0,35.7 µM (inactive)
same,GI50,A498,30.2 µM (inactive)
same,GI50,A549,31.4 µM (inactive)
same,GI50,ACHN,30.9 µM (inactive)
same,GI50,CAKI-1,37.1 µM (inactive)
same,GI50,CCRF-CEM,32.2 µM (inactive)
same,GI50,COLO 205,20.7 µM (inactive)
same,GI50,DU-145,43.7 µM (inactive)
same,GI50,EKVX,26.8 µM (inactive)
same,GI50,HCC 2998,27.6 µM (inactive)
same,GI50,HCT-116,21.8 µM (inactive)
same,GI50,HCT-15,42.9 µM
same,GI50,HL-60,39.3 µM (inactive)
same,GI50,HOP-62,40.1 µM (inactive)
same,GI50,HOP-92,28 µM (inactive)
same,GI50,HT-29,31.7 µM (inactive)
same,GI50,Hs-578T,31.6 µM (inactive)
same,GI50,IGROV-1,32.1 µM (inactive)
same,GI50,K562,28 µM (inactive)
same,GI50,KM12,22.3 µM (inactive)
same,GI50,LOX IMVI,20.6 µM (inactive)
same,GI50,M14,26.9 µM (inactive)
same,GI50,MCF7,44.5 µM (inactive)
same,GI50,MDA-MB-231,35.6 µM (inactive)
same,GI50,MDA-MB-435,20.3 µM (inactive)
same,GI50,MDA-N,24.4 µM (inactive)
same,GI50,MOLT-4,23.1 µM (inactive)
same,GI50,Malme-3M,24.1 µM (inactive)
same,GI50,NCI-H226,29.4 µM (inactive)
same,GI50,NCI-H23,25.8 µM (inactive)
same,GI50,NCI-H460,30.5 µM (inactive)
same,GI50,NCI-H522,44.3 µM (inactive)
same,GI50,NCI/ADR-RES,25.1 µM (inactive)
same,GI50,OVCAR-3,19 µM (inactive)
same,GI50,OVCAR-4,48.2 µM (inactive)
same,GI50,OVCAR-5,33 µM (inactive)
same,GI50,OVCAR-8,30.3 µM (inactive)
same,GI50,PC-3,26.7 µM (inactive)
same,GI50,RPMI-8226,42 µM (inactive)
same,GI50,RXF 393,26.7 µM (inactive)
same,GI50,SF-268,38.9 µM (inactive)
same,GI50,SF-295,24.3 µM (inactive)
same,GI50,SF-539,25.1 µM (inactive)
same,GI50,SK-MEL-28,33 µM (inactive)
same,GI50,SK-MEL-2,21.9 µM (inactive)
same,GI50,SK-MEL-5,20.7 µM (inactive)
same,GI50,SK-OV-3,52.8 µM (inactive)
same,GI50,SN12C,30.9 µM (inactive)
same,GI50,SNB-19,36.1 µM (inactive)
same,GI50,SNB-75,23.9 µM (inactive)
same,GI50,SR,37.1 µM (inactive)
same,GI50,SW-620,37.7 µM (inactive)
same,GI50,T47D,> 65.6 µM (inactive)
same,GI50,TK-10,29.2 µM (inactive)
same,GI50,U-251,34.8 µM (inactive)
same,GI50,UACC-257,29.3 µM (inactive)
same,GI50,UACC-62,20 µM (inactive)
same,GI50,UO-31,39.7 µM (inactive)
